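Grown in 96-well plates, cells were treated for 48 hours with each compound at five concentrations. Insufficient inhibition: endpoint recorded as highest concentration tested. Abbreviation: GI50, concentration required for 50% inhibition of growth.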 Calls of active or inactive are those of the source. Rule as the data show it: active = GI50 up to about 1.1 µM and inactive = higher.
Columns and labels:
Assay in all cases: growth of human tumour cells (NCI), 48 h
DMS-114 = tested on: DMS-114
DMS-273 = tested on: DMS-273
HOP-18 = tested on: HOP-18
KM-20L2 = tested on: KM-20L2
LXFL 529 = tested on: LXFL 529
M19-MEL = tested on: M19-MEL
RXF 631 = tested on: RXF 631
XF498 = tested on: XF498
SNB-78 = tested on: SNB-78

Row | SMILES | GI50 (DMS-114) | GI50 (DMS-273) | GI50 (HOP-18) | GI50 (KM-20L2) | GI50 (LXFL 529) | GI50 (M19-MEL) | GI50 (RXF 631) | GI50 (XF498) | GI50 (SNB-78)
1 | COc1ccccc1NC(=O)C1=C(C)NC(C)=C(C(=O)Nc2ccccc2OC)C1c1ccccc1Cl | 45.5 µM (inactive) | > 100 µM (inactive) | > 100 µM (inactive) | 56.5 µM (inactive) | > 100 µM (inactive) | > 100 µM (inactive) | > 100 µM (inactive) | 37.7 µM (inactive) | 
2 | CC(=O)OC12COC1CC(O)C1(C)C(=O)C(O)C3=C(C)C(O)CC(O)(C(OC(=O)c4ccccc4)C21)C3(C)C (stereo not drawn) | 6.97 µM (inactive) | 0.731 µM (active) |  | 1.41 µM (inactive) |  | 7.67 µM (inactive) |  | 2.36 µM (inactive) | > 100 µM (inactive)
3 | O=C1C=C(c2c(O)ccc3ccccc23)c2ccccc2C1=O | 2.04 µM (inactive) | 3.46 µM (inactive) | 8.81 µM (inactive) | 15.4 µM (inactive) | 1.59 µM (inactive) | 1.64 µM (inactive) | 6.56 µM (inactive) |  | 2.26 µM (inactive)
4 | COc1ccc(N2C(=O)/C(=C(\C)c3cc4ccccc4oc3=O)N=C2c2cc([N+](=O)[O-])ccc2Cl)cc1 | 24.2 µM (inactive) |  | 85.1 µM (inactive) | 29.7 µM (inactive) | 29.9 µM (inactive) | 42.1 µM (inactive) | 36.6 µM (inactive) |  | 24.4 µM (inactive)
5 | CCCN1C(=O)/C(=C(/O)C(=O)OCC)C(c2ccc(OC)c(OC)c2)C1=O (stereo not drawn) | > 100 µM (inactive) | > 100 µM (inactive) | > 100 µM (inactive) | > 100 µM (inactive) |  | > 100 µM (inactive) |  | > 100 µM (inactive) | > 100 µM (inactive)
6 | CCOC(=O)C1=C(O)C(=O)c2ccccc2C1=O | > 100 µM (inactive) | > 100 µM (inactive) | > 100 µM (inactive) |  |  | 22.2 µM (inactive) |  | > 100 µM (inactive) | > 100 µM (inactive)
7 | Cc1c(C)c2ccc(OC(C)C(=O)O)cc2oc1=O (stereo not drawn) | > 100 µM (inactive) |  | > 100 µM (inactive) | > 100 µM (inactive) | > 100 µM (inactive) | > 100 µM (inactive) | > 100 µM (inactive) | 35 µM (inactive) | > 100 µM (inactive)
8 | Clc1cccc(N2CCN(CCCN3CCc4c([nH]c5ccccc45)C3c3cccnc3)CC2)c1 (stereo not drawn) | 5.52 µM (inactive) | 5.98 µM (inactive) | 14.3 µM (inactive) | 4.28 µM (inactive) | 6.52 µM (inactive) | 10.5 µM (inactive) | 3.63 µM (inactive) | 4.58 µM (inactive) | 5.69 µM (inactive)
9 | C/N=c1/ss/c(=N\C(SC)=[N+](C)C)n1C.[O-][Cl+3]([O-])([O-])[O-] |  | > 100 µM (inactive) |  |  | > 100 µM (inactive) |  | 8.13 µM (inactive) | > 100 µM (inactive) | > 100 µM (inactive)
10 | COc1cccc2c1C(=O)c1c(O)c3c(c(O)c1C2=O)C[C@@](O)(C(=O)CN1CCOCC1)C[C@@H]3OC1CC(N)C(O)C(C)O1 (stereo partly drawn) | 3.52 µM (inactive) | 2.23 µM (inactive) | 0.000832 µM (active) | 9.77 µM (inactive) |  | 3.39 µM (inactive) |  | 2.45 µM (inactive) | 
11 | C/C(=N/NS(=O)(=O)c1c(C)cc(C)cc1C)c1cccc[n+]1[O-] | > 100 µM (inactive) | > 100 µM (inactive) | > 100 µM (inactive) | > 100 µM (inactive) | > 100 µM (inactive) | > 100 µM (inactive) |  | > 100 µM (inactive) | > 100 µM (inactive)
12 | COc1ccc(/N=N/C(C(=O)c2ccccc2)C(=O)c2ccccc2)cc1 | 19.4 µM (inactive) | 16.1 µM (inactive) |  | 27.2 µM (inactive) | 24.8 µM (inactive) |  | 31.4 µM (inactive) | 18.2 µM (inactive) | 
13 | C/C=C/C(=O)[C@@H](O)C(C)C |  | > 100 µM (inactive) |  | > 100 µM (inactive) | > 100 µM (inactive) | > 100 µM (inactive) |  |  | > 100 µM (inactive)
14 | COC(=O)/C(=N\Nc1nnc(C)n1N)C(C#N)c1ccccc1 (stereo not drawn) | 21.5 µM (inactive) | > 100 µM (inactive) | 7.05 µM (inactive) | > 100 µM (inactive) | 64.9 µM (inactive) | 18.5 µM (inactive) | 83.6 µM (inactive) | > 100 µM (inactive) | > 100 µM (inactive)
15 | CCCCN(C)/N=N/c1[nH]cnc1C(N)=O | > 100 µM (inactive) | 58.7 µM (inactive) | > 100 µM (inactive) | > 50.2 µM (inactive) |  | > 100 µM (inactive) |  | 32.4 µM (inactive) | > 100 µM (inactive)
16 | O=C1C2=C(C3=NCCc4c[nH]c1c43)c1c(cc(Br)c(O)c1Br)CCN2 | 2.96 µM (inactive) | 12.6 µM (inactive) | 20 µM (inactive) | 5.07 µM (inactive) |  | 2.79 µM (inactive) |  | 13.9 µM (inactive) | 5.64 µM (inactive)
17 | O=C1C=CC(=O)C12CCc1ccccc12 | > 100 µM (inactive) | > 100 µM (inactive) | > 33.2 µM (inactive) | > 100 µM (inactive) | > 100 µM (inactive) | > 100 µM (inactive) | > 100 µM (inactive) | > 100 µM (inactive) | > 100 µM (inactive)
18 | Clc1ccc(-c2c(C3=NCCCN3)nnn2-c2ccccc2)cc1 | 47.2 µM (inactive) | > 100 µM (inactive) | > 100 µM (inactive) | 33.9 µM (inactive) | > 100 µM (inactive) | 69.5 µM (inactive) | 75.3 µM (inactive) | > 100 µM (inactive) | > 100 µM (inactive)
19 | CN1COCN/C1=N/C#N | > 100 µM (inactive) |  | > 100 µM (inactive) | > 100 µM (inactive) | > 100 µM (inactive) | > 100 µM (inactive) | > 100 µM (inactive) | > 100 µM (inactive) | > 100 µM (inactive)
20 | CC1=NCCc2cc3[nH]c4ccccc4c3cc21 | 11.6 µM (inactive) | 13.6 µM (inactive) | 18.7 µM (inactive) | 11.2 µM (inactive) |  | 14.9 µM (inactive) |  | 10.9 µM (inactive) | 28.2 µM (inactive)
21 | C[C@]12CCC(=O)C(O)=C1CCC2=O |  | > 100 µM (inactive) | > 100 µM (inactive) | > 100 µM (inactive) | > 100 µM (inactive) | > 100 µM (inactive) |  |  | > 100 µM (inactive)
22 | CC(=O)OCCOCNC(=S)N/N=C/c1ccc([N+](=O)[O-])s1 | 7.85 µM (inactive) | 28.1 µM (inactive) | > 100 µM (inactive) | 32.4 µM (inactive) | 73.3 µM (inactive) | 18.2 µM (inactive) |  | > 100 µM (inactive) | > 100 µM (inactive)
23 | O=C1C[S+]([O-])c2ccccc2N1 (stereo not drawn) |  | 16.8 µM (inactive) | > 100 µM (inactive) | > 100 µM (inactive) | > 100 µM (inactive) | > 100 µM (inactive) | > 100 µM (inactive) | > 100 µM (inactive) | > 100 µM (inactive)
24 | CCOC(=O)C1=C(Nc2ccc(Cl)cc2Cl)OCC1=O |  | > 100 µM (inactive) |  | > 100 µM (inactive) | > 100 µM (inactive) | > 100 µM (inactive) | > 100 µM (inactive) | > 100 µM (inactive) | > 100 µM (inactive)
25 | CCOC(=N)CC(=O)Nc1cccc(C)c1C |  | > 100 µM (inactive) |  | > 100 µM (inactive) | > 100 µM (inactive) | > 100 µM (inactive) | > 100 µM (inactive) | > 100 µM (inactive) | 40.3 µM (inactive)
26 | Cc1cccc(C)c1N1C(=O)C(=O)C(c2nc3ccccc3s2)/C(=N/NC(=O)c2ccccc2O)C1=O (stereo not drawn) | 11.6 µM (inactive) | 4.74 µM (inactive) | 21.7 µM (inactive) | 32.6 µM (inactive) | 10.2 µM (inactive) | 13.1 µM (inactive) | 24.5 µM (inactive) | 12.4 µM (inactive) | 5.45 µM (inactive)
27 | C=C1C(=O)[C@@]23CC[C@H]4[C@@](C)(CCC[C@@]4(C)C(=O)OC)[C@@H]2CC[C@]1(O)C3 |  | 1.67 µM (inactive) | 2.07 µM (inactive) |  |  | 1.56 µM (inactive) |  | 1.75 µM (inactive) | 
28 | CC1CCCC2(O1)OC1CC(=O)OC1C1=C2C(=O)c2ccccc2C1=O (stereo not drawn) | 1.75 µM (inactive) | 1.8 µM (inactive) |  | 3.98 µM (inactive) | 1.4 µM (inactive) | 2.72 µM (inactive) |  | 2.72 µM (inactive) | 2.05 µM (inactive)
29 | C/C=C1\C[C@@H]2C(OC)Nc3cc(O)c(OC)cc3C(=O)N2C1 (stereo partly drawn) | 0.00118 µM (active) | 0.00129 µM (active) | 0.0213 µM (active) | 0.00887 µM (active) | 0.00301 µM (active) | 0.00612 µM (active) | 0.00859 µM (active) |  | 
